This is an account of results in US20250277030A1, “ANTI-NAPI2B ANTIBODIES AND METHODS OF USE” (Zymeworks BC Inc., priority 2022, published 2025).

The target of one experiment is T1, mouse NaPi2b (Mus musculus, UniProt Q9DBP0).
T1 construct: expressed in transfected cells; host or cells: HEK293-6e
T1 sequence (Q9DBP0 1-697): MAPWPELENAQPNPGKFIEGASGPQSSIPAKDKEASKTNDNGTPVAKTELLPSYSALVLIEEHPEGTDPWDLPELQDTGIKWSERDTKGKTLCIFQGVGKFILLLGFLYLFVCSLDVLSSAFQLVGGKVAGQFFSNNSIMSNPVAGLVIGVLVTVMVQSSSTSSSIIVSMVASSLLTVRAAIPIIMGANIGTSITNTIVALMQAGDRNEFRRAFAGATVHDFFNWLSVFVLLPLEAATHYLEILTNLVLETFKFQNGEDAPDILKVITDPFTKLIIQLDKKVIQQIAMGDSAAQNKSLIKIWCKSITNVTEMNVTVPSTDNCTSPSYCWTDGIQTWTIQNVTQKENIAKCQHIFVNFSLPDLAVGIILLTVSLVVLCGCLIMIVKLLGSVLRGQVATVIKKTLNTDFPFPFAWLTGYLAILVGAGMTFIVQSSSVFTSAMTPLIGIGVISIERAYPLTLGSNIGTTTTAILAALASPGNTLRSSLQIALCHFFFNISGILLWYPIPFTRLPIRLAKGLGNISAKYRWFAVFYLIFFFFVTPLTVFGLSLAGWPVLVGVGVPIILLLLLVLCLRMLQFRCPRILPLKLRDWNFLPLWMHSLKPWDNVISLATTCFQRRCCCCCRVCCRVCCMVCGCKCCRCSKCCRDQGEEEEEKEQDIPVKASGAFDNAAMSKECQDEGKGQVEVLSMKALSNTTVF
The experiment can be described thus: Flow cytometry binding to HEK293-6e cells transfected with mouse NaPi2b (Example 5). The settings on record: transfected HEK293-6e cells. The protocol:
The binding cross-reactivity of humanized antibody variant v29456 to human, cynomolgus and mouse NaPi2b was assessed by flow cytometry using HEK293-6e transfected cells.
Briefly, HEK293-6e cells were transfected for ˜24 hours to transiently express human NaPi2b, cynomolgus or mouse NaPi2b, at 1 μg of DNA per 1 million cells. Following transfection, 50,000 cells per well were seeded in V-bottom 96-well plates and incubated with 200 nM of primary antibody for 18-24 hours at 4° C. to prevent internalization. Post-incubation, cells were washed and stained with anti-Human IgG Fc AF647 conjugate (Jackson Immuno Research Labs, West Grove, PA, Cat. No. 109-605-098, Lot. No. 124868) at 4° C. for 1 hour. Following staining and washing, fluorescence was detected by flow cytometry on BD LSRFortessa™ Cell Analyzer (BD Biosciences, Franklin Lake, NJ) with 10,000 minimum events collected per well. The AF647/APC-A GeoMean (fluorescence signal geometric mean, proportional to anti-Human AF647 binding) was calculated for the live singlet cell population for each primary antibody using FlowJo™ v8 software (BD Biosciences, Franklin Lake, NJ). The Bmax and Kd of each primary antibody were calculated using GraphPad Prism Version 9 (GraphPad Software, San Diego, CA)
Background: A flow cytometer gives signals particle by particle.

The test system of a further experiment is HCC-78 cells. The experiment can be described thus: Internalization by flow cytometry in HCC-78 cells. The settings on record: antibody 10 nM. Format: cell-based, human. The protocol: Briefly, antibodies were fluorescently labeled by coupling to a Fab fragment AF488 conjugate targeting anti-Human IgG Fe (Jackson Immuno Research Labs, West Grove, PA; Cat. No. 109-547-008) at a 1:1 molar ratio in PBS pH 7.4 (Thermo Fisher Scientific, Waltham, MA; Cat. No. 10010-023), for 24 hours at 4° C. Cells were seeded at 50,000 cells/well in RPMI 1640, ATCC modification (Thermo Fisher Scientific, Waltham, MA) supplemented with 10% fetal bovine serum (Thermo Fisher Scientific, Waltham, MA) in 48-well plates and incubated overnight under standard culturing conditions (37° C./5% CO2) to allow attachment. […] Following incubation, cells were dissociated, washed, and surface AF488 fluorescence was quenched using an anti-AF488 antibody (Life Technologies, Carlsbad, CA; Cat. No. A-11094) at 100 nM for 30 minutes at 4° C. […] (internalized fluorescence) was detected by flow cytometry on a BD LSRFortessa™ Cell Analyzer (BD Biosciences, Franklin Lake, NJ) with 1,000 minimum events collected per well. The AF488/FITC-A GeoMean (fluorescence signal geometric mean, proportional to anti-Human Fab AF488 labelling) was calculated for the live single cell population using FlowJo™ Version 10.8.1 (BD Biosciences, Franklin Lake, NJ) and plotted using GraphPad Prism Version 9 (GraphPad Software, San Diego, CA).

Regarding “v22277: anti-RSV antibody palivizumab, negative control; has a heterodimeric Fc [reference compound]”, the “Binding to mouse NaPi2b, in words” value in the experiment with mouse NaPi2b is listed as “did not bind”. In addition, the “Internalized Fluorescence Fold-Over Palivizumab” value came out at 1.0 fold in the experiment on HCC-78 cells (HCC-78, 5 hrs) and 1.0 fold in the experiment with HCC-78 cells (HCC-78, 24 hrs).
